Measurements published in publication PMC12748266, “Testing antimicrobial peptides inhibiting protein synthesis in living E. coli and K. pneumoniae using bio-orthogonal non-canonical amino-acid tagging” (Frontiers in Microbiology, 2025).
Values after ≈ are worked out from the molar mass of the structure shown. Where two headings read alike, the source gives them in different places. No end group written: not given here.

What was measured:
[1] = system: E. coli ATCC 25922; assay: microbe, parasite or virus in culture; format: cell-based, Escherichia coli; conditions: for MIC: read-out: MIC
Procedure: […] Each peptide, diluted at a starting concentration of 128 μM in supplemented M9 medium was added to the first column of wells of a 96-well round-bottom microplate (Sarstedt, Milan, Italy). Serially two-fold dilution (1:1) were performed across subsequent wells to a final volume of 50 μL. 50 μL of bacterial suspension (1 × 10^7 CFU/mL) were then added to each well, to a final bacterial concentration in each well to 5 × 10^6 CFU/mL per well. Untreated bacterial culture was used as growth control, while 100 μL of uninoculated supplemented M9 medium was used to verify the sterility of the medium. The plates were sealed with parafilm to minimize evaporation and incubated at 37 °C for 18 h. The minimum inhibitory concentration (MIC) was visually determined as the lowest peptide concentration in a well with no visible bacterial growth. Data are reported as the mode of at least three independent experiments.

[2] = system: E. coli ATCC 25922; assay: Post-antibiotic effect (PAE), growth kinetics after washout; format: cell-based, Escherichia coli; conditions: 30 min treatment at MIC
Procedure: An overnight culture of E. coli ATCC 25922, prepared as described above, was diluted to a final concentration of 5 × 10^6 CFU/mL and then incubated at 37 °C for 30 min in the presence or absence of each peptide or antibiotic at various concentrations, with a final volume of 1 mL. To measure the post-antibiotic effect (PAE) of antimicrobials, the compounds were removed from the supernatant by centrifugation (16,000 × g for 5 min) and bacteria were washed and resuspended in 1 mL of fresh supplemented MHB medium, to promote faster growth visible as increased absorbance. 200 μL of each sample was then transferred to a 96-well round-bottom microplate (Sarstedt, Milan, Italy), which was then placed in a Nanoquant Infinite-M200Pro plate reader with stable temperature at 37 °C. Each sample was surrounded by water-filled wells to reduce its own evaporation. Optical density at 600 nm was then recorded for each sample every hour for up to 18 h. PAE was calculated according to [Holfeld et al. (2018)] as the difference between the time needed for a cell culture incubated with an antibiotic substance to reach half-maximum absorbance of the control culture and the time that the control culture needed to reach half-maximum absorbance of the stationary phase. According to this definition, the PAE of each compound (expressed as time) was calculated based on the OD₆₀₀ value of its respective replicate, which corresponded to half of the maximum absorbance reached by the control culture in the stationary phase (at 18 h). The mean PAE values (PAE in hours) of each compound, were obtained by averaging the times from the three independent experiments.

[3] = system: K. pneumoniae ATCC 700603; assay: BONCAT: HPG incorporation into newly synthesized proteins, flow cytometry; format: cell-based, Klebsiella pneumoniae; conditions: compound at MIC; for Fluorescence Intensity (% of Control): 10 min pre-incubation then 30 min HPG, untreated = 100%, mean, n ≥ 3
Procedure: We used a modified protocol from [Lindivat et al. (2020)]. Briefly, overnight cultures of E. coli ATCC 25922 or K. pneumoniae ATCC 700603, prepared as described above, were diluted to a final concentration of 5×10^6 CFU/mL and allowed to adjust for 30 min at 37 °C. The culture was then incubated at 37 °C in the dark for 10 or 30 min in the presence or absence of each peptide or antibiotic at various concentrations, with a final volume of 1 mL. At this point, only in certain specified experimental assays, the compounds were removed from the supernatant by centrifugation (16,000 × g for 5 min) and bacteria were washed and resuspended in fresh supplemented M9 medium. Then, 32 μL of a 500 μM homopropargylglycine (HPG) solution were added to each sample, resulting in a final concentration of 16 μM in a finale volume of 1 mL. Also included in each assay were two untreated controls containing only bacteria and bacteria treated with 16 μM HPG alone, respectively. All samples were then incubated at 37 °C in the dark for 30 min. After incubation, samples were washed once with 1X filtered Phosphate Buffered Saline (PBS) (centrifuged at 16,000 x g for 5 min) and resuspended in PBS. After washing, samples were fixed with formaldehyde (Sigma Aldrich, USA) to a final concentration of 3% in 1 mL for 1 h at 25 °C. Subsequently, the samples were centrifuged at 16,000 x g for 5 min and resuspended in 1 mL of PBS. If not analysed immediately, the fixed samples were stored at 4 °C prior to performing the click chemistry reaction. Samples were centrifugated at 16,000 x g for 5 min and bacteria cells were dehydrated by ethanol that was added sequentially to achieve a final concentration of 50% (v/v) (3 min of incubation), 80% (v/v) (3 min of incubation), and 95% (v/v) (3 min of incubation). After dehydration, the samples were centrifugated (16,000 × g, 5 min) and resuspended in PBS. For cell analysis by SDS-PAGE, the following variations were implemented: bacterial cells were diluted in supplemented M9 medium to a final density of ~ 1 × 10^9 CFU/mL, and HPG was added to the samples at a final concentration of 160 μM. Bacteria were incubated with HPG for 0, 15, 30, 60, or 120 min at 37 °C in the dark.
The click reaction was carried out according to [Rostovtsev et al. (2002)]. 15 μL of a pre-mix solution (prepared as described above) were added to each sample containing fixed bacteria that had incorporated HPG (30 μL of pre-mix solution in case of samples prepared for SDS-PAGE analysis), resulting in the following final concentrations in each sample: 0.1 mM copper sulfate, 0.5 mM Tris (3-hydroxypropyltriazolylmethyl)amine (THPTA), and 2.5 μM Alexa Fluor azide 488. Additionally, 50 μL of freshly prepared 100 mM sodium ascorbate and 50 μL of 100 mM aminoguanidine were added (100 μL in case of samples prepared for SDS-PAGE analysis), bringing the final volume to 1 mL. The samples were gently inverted once to mix and incubated for 30 min in the dark at 25 °C. […]
An overnight culture of E. coli ATCC 25922, or of K. pneumoniae ATCC 700603, prepared as described above, was diluted to a final concentration of 5 × 10^6 CFU/mL and allowed to adjust for 30 min at 37 °C under shaking. Membrane permeabilization of bacteria was then assessed by incubating bacteria at 37 °C, in a final volume of 1 mL, with varying concentrations of each peptide or antibiotic used for the BONCAT assay. […] The fluorescence of untreated cells was used to establish the gating for positive PI-stained cells. […]

[4] = Escherichia coli, ATCC25922, 18 h, supplemented M9 medium, 5 × 10^6 CFU/mL, 18 h, 37 °C, visual, mode of at least three experiments
[5] = OD600 every hour for 18 h in MHB, mean ± SD, n = 3

| Compound | MIC ([1]; Escherichia coli, ATCC25922, 18 h, Mueller Hinton, 2,5x10^5 CFU/mL, 18 h, 37 °C, mode of at least three experiments) [µM] | MIC ([1]; Escherichia coli, ATCC25922, 18 h, Mueller Hinton, 5x10^6 CFU/mL, 18 h, 37 °C, mode of at least three experiments) [µM] | MIC [1, 4] [µM] | Fold increase in MIC on 20-fold increase in cell density ([1]; MHB, 5×10^6 vs 2,5×10^5 CFU/well) | PAE [2] | PAE [2, 5] [h] | Reduction in fluorescence ([3]; 10 min + 30 min HPG) | Fluorescence Intensity (% of Control) [3] | MIC ([1]; Mueller Hinton, 2,5x10^5 CFU/mL, 18 h, 37 °C, mode of at least three experiments) [µM] | MIC ([1]; Mueller Hinton, 5x10^6 CFU/mL, 18 h, 37 °C, mode of at least three experiments) [µM] | MIC ([1]; supplemented M9 medium, 5 × 10^6 CFU/mL, 18 h, 37 °C, visual, mode of at least three experiments) [µM] | MIC ([1]; ATCC 25922, 18 h) [µM] |
| --- | --- | --- | --- | --- | --- | --- | --- | --- | --- | --- | --- | --- |
| O=C(N[C@H](CO)[C@H](O)c1ccc([N+](=O)[O-])cc1)C(Cl)Cl [CHL, Chloramphenicol] | 16 (≈ 5.17 µg/mL) | 64 (≈ 20.7 µg/mL) | 32 (≈ 10.3 µg/mL) | 4-8 fold | about half an hour | 0.6 ± 1.2 | – | – | – | – | – | – |
| CO[C@H]1/C=C/O[C@@]2(C)Oc3c(C)c(O)c4c(O)c(c(/C=N/N5CCN(C)CC5)c(O)c4c3C2=O)NC(=O)/C(C)=C\C=C\[C@H](C)[C@H](O)[C@@H](C)[C@@H](O)[C@@H](C)[C@H](OC(C)=O)[C@@H]1C [RIF, Rifampicin] | – | – | 2 (≈ 1.65 µg/mL) | – | – | 1.6 ± 1.1 | did not affect fluorescence | 87 % of Control | – | – | – | – |
| RRIRPRPPRLPRPRPR [Bac7(1–16)] | – | – | – | – | – | 1.7 ± 0.9 | – | 18 % of Control | 1 | 2 | 1 | – |
| RRIRPRPPRLPRPRPRPLPFPRPGPRPIPRPLPFP [Bac7(1–35)] | – | – | – | – | 3 h | 2.9 ± 0.5 | – | 6 % of Control | – | – | – | 1 |
